According to the NIST ThermoML archive (doi:10.1016/j.tca.2015.02.014):

Assay: mn = molality of the nth substance listed, in mol/kg
Settings: 100 kPa, Liquid; for viscosity: Capillary tube (Ostwald / Ubbelohde) method; for speed of sound: Frequency=3 MHz, Sing-around technique in a fixed-path interferometer; for mass density: Vibrating tube method

C[C@H](CCC(=O)[O-])[C@H]1CC[C@H]2[C@@H]3CC[C@@H]4C[C@H](O)CC[C@]4(C)[C@H]3C[C@H](O)[C@]12C.[Na+] [sodium deoxycholate] + O
Settings | mass density, 308.15 K [kg/m3] | mass density, 313.15 K [kg/m3] | mass density, 318.15 K [kg/m3] | speed of sound, 308.15 K [m/s] | speed of sound, 313.15 K [m/s] | speed of sound, 318.15 K [m/s] | viscosity, 308.15 K [mPa·s] | viscosity, 313.15 K [mPa·s] | viscosity, 318.15 K [mPa·s]
m1 = 0.001 | 994.255 | 992.421 | 990.405 | 1520.1 | 1529.3 | 1536.9 | 0.7203 | 0.6543 | 0.5973
m1 = 0.002 | 994.355 | 992.515 | 990.499 | 1520.5 | 1529.5 | 1537.1 | 0.7215 | 0.6554 | 0.5984
m1 = 0.003 | 994.435 | 992.6 | 990.576 | 1520.7 | 1529.7 | 1537.3 | 0.7225 | 0.6565 | 0.5994
m1 = 0.004 | 994.509 | 992.681 | 990.651 | 1520.8 | 1529.8 | 1537.3 | 0.7254 | 0.6593 | 0.6022
m1 = 0.005 | 994.587 | 992.757 | 990.732 | 1521 | 1530 | 1537.5 | 0.7307 | 0.6645 | 0.6074
m1 = 0.006 | 994.659 | 992.817 | 990.802 | 1521.3 | 1530.3 | 1537.7 | 0.7433 | 0.677 | 0.6197
m1 = 0.007 | 994.739 | 992.91 | 990.892 | 1521.5 | 1530.5 | 1537.9 | 0.752 | 0.6857 | 0.6283
m1 = 0.009 | 994.914 | 993.064 | 991.03 | 1521.9 | 1530.9 | 1538.3 | 0.7601 | 0.6936 | 0.6361
m1 = 0.011 | 995.094 | 993.239 | 991.199 | 1522.2 | 1531.2 | 1538.6 | 0.7644 | 0.6979 | 0.6403
m1 = 0.013 | 995.282 | 993.428 | 991.379 | 1522.6 | 1531.5 | 1538.9 | 0.7685 | 0.7019 | 0.6443
m1 = 0.015 | 995.452 | 993.595 | 991.535 | 1522.8 | 1531.8 | 1539.2 | 0.7762 | 0.7096 | 0.6518
m1 = 0.017 | 995.616 | 993.737 | 991.705 | 1523.2 | 1532 | 1539.5 | 0.7831 | 0.7164 | 0.6586
